Experimental data as given in the supplement of paper PMC10307832.

Key:
Experiment in all cases: relative viability (nuclei count vs DMSO), 5 days (fraction); higher = more cells survive
Crenolanib + Palbociclib = compound: CC1(COc2ccc3c(c2)ncn3-c2ccc3cccc(N4CCC(N)CC4)c3n2)COC1 [Crenolanib] + CC(=O)c1c(C)c2cnc(Nc3ccc(N4CCNCC4)cn3)nc2n(C2CCCC2)c1=O [Palbociclib] (partner 0.5 µM)
Method in brief: (§1)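 After 5 days of treatment, lung cancer cells in 1536-well plates were fixed and stained in a single step (final 0.05% Triton X-100, 1% formaldehyde, 1 ug/ml Hoechst) and their nuclei counted on 4× images. Treatment had been applied by pin tool the day after seeding as one drug alone or as a fixed anchor-drug dose with five library-drug doses (not always all listed) in √10 steps. Relative viability is the nuclei count of treated wells divided by that of vehicle wells, and values are medians of duplicate plates.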

Crenolanib + Alpelisib = compound: CC1(COc2ccc3c(c2)ncn3-c2ccc3cccc(N4CCC(N)CC4)c3n2)COC1 [Crenolanib] + Cc1nc(NC(=O)N2CCC[C@H]2C(N)=O)sc1-c1ccnc(C(C)(C)C(F)(F)F)c1 [Alpelisib] (partner 2 µM)
Method in brief: as §1

Tivantinib + Pictilisib = compound: O=C1NC(=O)[C@@H](c2cn3c4c(cccc24)CCC3)[C@@H]1c1c[nH]c2ccccc12 [Tivantinib] + CS(=O)(=O)N1CCN(Cc2cc3nc(-c4cccc5[nH]ncc45)nc(N4CCOCC4)c3s2)CC1 [Pictilisib] (partner 1 µM)
Method in brief: as §1

Tivantinib + Pemetrexed = compound: O=C1NC(=O)[C@@H](c2cn3c4c(cccc24)CCC3)[C@@H]1c1c[nH]c2ccccc12 [Tivantinib] + Nc1nc2[nH]cc(CCc3ccc(C(=O)N[C@@H](CCC(=O)O)C(=O)O)cc3)c2c(=O)[nH]1 [Pemetrexed] (partner 0.2 µM)
Method in brief: as §1

Cell Line	relative viability (Crenolanib + Palbociclib; first compound 0.01 µM)	relative viability (Crenolanib + Palbociclib; first compound 0.03162 µM)	relative viability (Crenolanib + Palbociclib; first compound 0.1 µM)	relative viability (Crenolanib + Palbociclib; first compound 0.3162 µM)	relative viability (Crenolanib + Palbociclib; first compound 1 µM)	relative viability (Crenolanib + Alpelisib; first compound 0.01 µM)	relative viability (Crenolanib + Alpelisib; first compound 0.03162 µM)	relative viability (Crenolanib + Alpelisib; first compound 0.1 µM)	relative viability (Crenolanib + Alpelisib; first compound 0.3162 µM)	relative viability (Crenolanib + Alpelisib; first compound 1 µM)	relative viability (Tivantinib + Pictilisib; first compound 0.01 µM)	relative viability (Tivantinib + Pictilisib; first compound 0.03162 µM)	relative viability (Tivantinib + Pictilisib; first compound 0.1 µM)	relative viability (Tivantinib + Pictilisib; first compound 0.3162 µM)	relative viability (Tivantinib + Pemetrexed; first compound 0.01 µM)	relative viability (Tivantinib + Pemetrexed; first compound 0.03162 µM)	relative viability (Tivantinib + Pemetrexed; first compound 0.1 µM)	relative viability (Tivantinib + Pemetrexed; first compound 0.3162 µM)
NCI-H2228	0.758	0.866	0.629	0.92	0.815	0.842	0.863	0.712	0.867	0.748	0.405	0.345	0.458	0.413	0.363	0.319	0.329	0.352
NCI-H322M	0.497	0.483	0.482	0.479	0.496	0.807	0.909	0.829	0.913	0.841	0.505	0.481	0.467	0.4	0.682	0.614	0.588	
NCI-H1993	0.596	0.704	0.621	0.688	0.579	0.682	0.629	0.688	0.737	0.709	0.817	0.857	0.843	0.902	0.621	0.53	0.586	0.541
NCI-H1944	0.356	0.315	0.335	0.324	0.3	0.881	0.892	0.742	0.927	0.819	0.308	0.294	0.332	0.369	0.603	0.582	0.619	0.546
LXF-289	0.628	0.595	0.62	0.648	0.618	1.02	1.04	1.01	1.09	1.02	0.815	0.769	0.703	0.817	0.925	0.501	0.896	0.925
NCI-H2405	0.584		0.39	0.541	0.539	1	0.76	0.496	0.68	0.691	0.509	0.43	0.381	0.4	1.12	1.25	1.09	1.05
NCI-H2023	0.358	0.373	0.386	0.434	0.335	0.627	0.655	0.594	0.725	0.635	0.246	0.225	0.218	0.202	0.278	0.206	0.253	0.191
HCC-366	0.458	0.381	0.416	0.46	0.434	0.484	0.655	0.351	0.428	0.406	0.157	0.147	0.119	0.141	0.163	0.145	0.148	0.149
HCC-78	0.451	0.434	0.416	0.479	0.428	0.357	0.312	0.348	0.402	0.338	0.241	0.177	0.204	0.196	0.893	0.878	0.933	0.879
